In patent US12344610B2, “APOL1 inhibitors and methods of use” (Maze Therapeutics, Inc., priority 2022, dated 2025):

Assays:
[1] = tested on: HEK293 clonal cell line overexpressing APOL1 G1; test: APOL1 G1 HEK293 cell rescue assay (Example B3); type: cell-based; details: Homo sapiens, HEK293, HEK293 clonal line overexpressing APOL1 G1; geometric mean of at least 2 runs; † = single run; ¥ = concentration at 50% rescue estimated (no sigmoidal curve)
In short: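 Rescue of cell death caused by APOL1 G1 overexpression was measured in a clonal HEK293 line. Compounds were tested in duplicate on one plate, and EC50s were geometric means across at least two runs on different days. Some values are estimated 50%-rescue concentrations where curve fitting failed.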

[2] = tested on: Trypanosoma brucei Lister 427 VSG221 with APOL1 G0 recombinant protein; test: APOL1 G0 trypanosome cell rescue assay (Example B5); type: cell-based; details: Trypanosoma brucei, 20 h, read-out: APOL1 G0 Trypanosome Rescue EC50, Trypanosoma brucei Lister 427 VSG221 with APOL1 G0 recombinant protein, 20 hours, CellTiter-Glo; geometric mean of at least 2 assay runs; † = single assay run
In short: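 Luminescent ATP read-out (CellTiter-Glo) of trypanosome viability after 20 h at 37° C. Bloodstream T. brucei Lister 427 VSG221, 250/well in modified HMI-9, were exposed to recombinant mature APOL1 (aa 28-398) from a 2 μg/mL addition, plus compound in 11-point 2-fold series.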

Compound	EC50 [1]	EC50 [2]
C[C@]1(O)C[C@@H](N2C(=O)Cc3cc(OCCN4CCC5(CC4)C(=O)Nc4ccc(Cl)cc45)cnc32)C1 [Compound 345, 5-chloro-1′-[2-({2-oxo-1-[(cis)-3-hydroxy-3-methylcyclobutyl]-1H,2H,3H-pyrrolo[2,3-b]pyridin-5-yl}oxy)ethyl]-1,2-dihydrospiro[indole-3,4′-piperidin]-2-one]	79 nM	161 nM
Cn1ncc2cc(OCCN3CCC4(CC3)C(=O)Nc3ccc(Cl)cc34)ccc21 [Compound 68, 5-chloro-1′-{2-[(1-methyl-1H-indazol-5-yl)oxy]ethyl}-1,2-dihydrospiro[indole-3,4′-piperidin]-2-one]	368 nM	358 nM
CC(C)(O)c1ncc(OCCN2CCC3(CC2)C(=O)Nc2ccc(Cl)cc23)cc1C(F)(F)F [Compound 371, 5-chloro-1′-(2-{[6-(2-hydroxypropan-2-yl)-5-(trifluoromethyl)pyridin-3-yl]oxy}ethyl)-1,2-dihydrospiro[indole-3,4′-piperidin]-2-one]	28.8 nM	18.8 nM
